We go through six compounds from patent US20240238423A9, “TETRAHYDROISOQUINOLINE HETEROBIFUNCTIONAL BCL-XL DEGRADERS” (Treeline Biosciences, Inc., priority 2022, published 2024).

The experiment deals with T1, Human BCL-XL protein (N-terminal HiBiT tagged BCL-XL in HT1080 cells) (Homo sapiens, UniProt Q07817).
T1 construct: expressed in transfected cells; host or cells: HT-1080 (ATCC CCL-121), stably transduced with lentivirus pLV-UBC-N-HiBiT-BCL-XL-PGK-puro and selected with puromycin
Description: HiBiT based degradation assay. The class given is cell-based. The conditions noted are these: HT1080 cells expressing HiBiT-BCL-XL; for Ymin (24 h) / Ymin (6 h): BCL-XL degradation normalized with DMSO control; for DC50: BCL-XL degradation. The source says: Human BCL-XL protein coding open reading frame fused with N-terminal HiBiT coding sequence was synthesized from Integrated DNA Technologies (IDT). Next, N-HiBiT-BCL-XL sequence was cloned into pLV-UBC-PGK-Puro, a lentivirus plasmid purchased from Vectorbuilder, to generate pLV-UBC-N-HiBiT-BCL-XL-PGK-puro. Lentiviral particles were generated from Lenti-X™ 293T cells (Clontech) by co-transfection of pLV-UBC-N-HiBiT-BCL-XL-PGK-puro plasmids and lentiviral packaging plasmid mix (Cellecta). HT-1080 [HT1080](ATCC CCL-121) cells were infected with the lentivirus, and HT1080 cells stably integrated with the lentiviral vectors were established by incubation with 1 μg/mL puromycin (Thermofisher).
HT1080 cells expressing N-terminal HiBiT tagged BCL-XL were dispensed into a 384-well plate pre-spotted with compounds at varying concentrations. Three thousand cells were seeded into each well in 40 μL of RPMI 1640 media. […] After incubation, luminescence was read on a PHERAstar FSX Plate Reader (BMG). BCL-XL degradation at each indicated concentration was normalized with the DMSO control. The BCL-XL degradation curves were plotted using a four-parameter logistic model. For compounds displaying hook effects, the curve fitting was performed using the bottom point of the hook curves (i.e., the point of Ymin) as the bottom plateau to calculate EC50.
(HiBiT is a short tag that completes a luciferase, so light tracks the accessible tagged protein.)

Where two headings read alike, the source gives them in different places.

T1 sequence (Q07817 whole entry): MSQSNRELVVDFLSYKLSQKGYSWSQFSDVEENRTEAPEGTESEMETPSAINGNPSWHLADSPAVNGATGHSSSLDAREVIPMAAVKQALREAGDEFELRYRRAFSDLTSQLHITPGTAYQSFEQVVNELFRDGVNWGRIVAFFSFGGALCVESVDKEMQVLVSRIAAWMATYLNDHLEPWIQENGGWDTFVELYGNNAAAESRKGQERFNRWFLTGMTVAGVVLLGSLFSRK

As for `Cc1c(OCCC[C@H]2CCN(CC(=O)Nc3cccc4c(C5CCC(=O)NC5=O)nn(C)c34)CC2(F)F)cccc1-c1ccc(N2CCc3cccc(C(=O)Nc4nc5ccccc5s4)c3C2)nc1C(=O)O` (stereo partly drawn) [Compound 197a, 6-(8-(benzo[d]thiazol-2-ylcarbamoyl)-3,4-dihydroisoquinolin-2(1H)-yl)-3-(3-(3-((4S)-1-(2-((3-(2,6-dioxopiperidin-3-yl)-1-methyl-1H-indazol-7-yl)amino)-2-oxoethyl)-3,3-difluoropiperidin-4-yl)propoxy)-2-methylphenyl)picolinic acid], for the setting “24 h”, the “Ymin (24 h)” value is listed as “B (50% ≤ Ymin < 70%)”. Moreover, the DC50 (24 h, read-out: EC50 (24 h)) was 100 to 1000 nM.
For `Cc1c(Oc2ccccc2CCC(=O)Nc2ccc(C3CCC(=O)NC3=O)cc2)cccc1-c1ccc(N2CCc3cccc(C(=O)Nc4nc5ccccc5s4)c3C2)nc1C(=O)O` (stereo not drawn) [Compound 134, 6-(8-(benzo[d]thiazol-2-ylcarbamoyl)-3,4-dihydroisoquinolin-2(1H)-yl)-3-(3-(2-(3-((4-(2,6-dioxopiperidin-3-yl)phenyl)amino)-3-oxopropyl)phenoxy)-2-methylphenyl)picolinic acid], the “Ymin (6 h)” value (6 h) is “B (50% ≤ Ymin < 70%)”. For the same compound, the “Ymin (24 h)” value (24 h) is on record as “B (50% ≤ Ymin < 70%)”. Besides, the DC50 reads like this: (6 h, read-out: EC50 (6 h)) 100 to 1000 nM; (24 h, read-out: EC50 (24 h)) under 100 nM.
On to `Cc1c(OCCCN2CCN(CCOc3ccc4c(C5CCC(=O)NC5=O)nn(C)c4c3)CC2)cccc1-c1ccc(N2CCc3cccc(C(=O)Nc4nc5ccccc5s4)c3C2)nc1C(=O)O` (stereo not drawn) [Compound 136, 6-(8-(benzo[d]thiazol-2-ylcarbamoyl)-3,4-dihydroisoquinolin-2(1H)-yl)-3-(3-(3-(4-(2-((3-(2,6-dioxopiperidin-3-yl)-1-methyl-1H-indazol-6-yl)oxy)ethyl)piperazin-1-yl)propoxy)-2-methylphenyl)picolinic acid], for which the “Ymin (6 h)” value (6 h) is reported as “B (50% ≤ Ymin < 70%)”. Further, the “Ymin (24 h)” value (24 h) is recorded as “B (50% ≤ Ymin < 70%)”. In addition, the DC50 is 100 to 1000 nM (6 h, read-out: EC50 (6 h)) and under 100 nM (24 h, read-out: EC50 (24 h)).
Regarding `Cc1c(OCCC2CCN(CCN3CCC(c4cccc5c(C6CCC(=O)NC6=O)nn(C)c45)CC3)CC2)cccc1-c1ccc(N2CCc3cccc(C(=O)Nc4nc5ccccc5s4)c3C2)nc1C(=O)O` (stereo not drawn) [Compound 249, 6-[8-(1,3-benzothiazol-2-ylcarbamoyl)-3,4-dihydro-1H-isoquinolin-2-yl]-3-[3-[2-[1-[2-[4-[3-(2,6-dioxo-3-piperidyl)-1-methyl-indazol-7-yl]-1-piperidyl]ethyl]-4-piperidyl]ethoxy]-2-methyl-phenyl] pyridine-2-carboxylic acid], under “24 h”, the “Ymin (24 h)” value is listed as “A (Ymin < 50%)”. For the same compound, the DC50 (24 h, read-out: EC50 (24 h)) is under 100 nM.
Take `Cc1c(Oc2ccc(CCC(=O)N3CCN(c4ccc5c(C6CCC(=O)NC6=O)nn(C)c5c4)CC3)cc2)cccc1-c1ccc(N2CCc3cccc(C(=O)Nc4nc5ccccc5s4)c3C2)nc1C(=O)O` (stereo not drawn) [Compound 244, 6-(8-(benzo[d]thiazol-2-ylcarbamoyl)-3,4-dihydroisoquinolin-2(1H)-yl)-3-(3-(4-(3-(4-(3-(2,6-dioxopiperidin-3-yl)-1-methyl-1H-indazol-6-yl)piperazin-1-yl)-3-oxopropyl)phenoxy)-2-methylphenyl)picolinic acid]: the “Ymin (6 h)” value (6 h) was “C (Ymin ≥ 70%)”. Further, the “Ymin (24 h)” value (24 h) is given as “B (50% ≤ Ymin < 70%)”. Also, the DC50 reads like this: (6 h, read-out: EC50 (6 h)) 1000 to 10000 nM; (24 h, read-out: EC50 (24 h)) under 100 nM.
`Cc1c(O[C@H]2CC[C@H](CCN3CCN(c4cccc5c(C6CCC(=O)NC6=O)nn(C)c45)CC3)CC2)cccc1-c1ccc(N2CCc3cccc(C(=O)Nc4nc5ccccc5s4)c3C2)nc1C(=O)O` (stereo partly drawn) [Compound 215a, 6-(8-(benzo[d]thiazol-2-ylcarbamoyl)-3,4-dihydroisoquinolin-2(1H)-yl)-3-(3-(((1r,4r)-4-(2-(4-(3-(2,6-dioxopiperidin-3-yl)-1-methyl-1H-indazol-7-yl)piperazin-1-yl)ethyl)cyclohexyl)oxy)-2-methylphenyl)picolinic acid]: under “24 h”, the “Ymin (24 h)” value is listed as “C (Ymin ≥ 70%)”. In addition, the DC50 (24 h, read-out: EC50 (24 h)) was under 100 nM.
